Data on 15 molecules can be found in patent US8129592B2, “Plant isoflavonoid hydroxylases and methods of use thereof” (The Samuel Roberts Noble Foundation, Inc., priority 2003, dated 2012).

One data set has as its target T1, I3′H (MtCYP81E9) (Medicago truncatula, UniProt Q6WNQ9).
T1 construct: made in house; host or cells: Saccharomyces cerevisiae WAT11, vector YeDP60; microsomal fraction
T1 sequence (Q6WNQ9 with tags, fused parts or gaps limits assumed): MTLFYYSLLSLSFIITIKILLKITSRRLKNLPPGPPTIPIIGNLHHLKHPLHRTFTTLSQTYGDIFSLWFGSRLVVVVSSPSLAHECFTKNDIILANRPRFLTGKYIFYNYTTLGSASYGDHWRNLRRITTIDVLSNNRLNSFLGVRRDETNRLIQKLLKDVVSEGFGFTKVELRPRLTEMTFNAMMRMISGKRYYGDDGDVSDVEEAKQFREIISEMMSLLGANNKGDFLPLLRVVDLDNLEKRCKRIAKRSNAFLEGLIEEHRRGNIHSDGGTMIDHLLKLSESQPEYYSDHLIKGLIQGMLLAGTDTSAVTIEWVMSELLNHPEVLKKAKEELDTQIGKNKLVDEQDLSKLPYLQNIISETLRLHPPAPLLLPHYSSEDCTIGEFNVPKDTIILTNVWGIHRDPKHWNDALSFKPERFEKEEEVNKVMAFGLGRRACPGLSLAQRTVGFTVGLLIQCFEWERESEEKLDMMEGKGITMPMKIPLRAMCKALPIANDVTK
In words: Hydroxylase assay with yeast microsomes expressing recombinant MtCYP81E9 (I3′H). The format is biochemical. Conditions: for Substrate specificity of I3′H (MtCYP81E9), relative activity: 100% = biochanin A, a = sum of putative 2′ and/or 3′-hydroxylated products, b = sum of all the products, ND = activities not detectable. Here is the method: (§1) PCR products were digested with BamHI and KpnI and ligated into the yeast expression vector YeDP60 following BamHI/KpnI digestion. MtCYP81E8 was directly excised from the original clone in pBSK(+) by BamHI and KpnI and inserted into YeDP60. All constructs were sequenced to ensure that there were no PCR-introduced errors. […] After induction with 20% galactose for ˜18 h, yeast cells was harvested, weighed, and immediately processed for microsomal fractionation.
(§2) After incubation at ˜80 rpm for 30 to 40 min, spheroplasts were centrifuged down for 5 min, washed twice with Zymolyase buffer B, and then twice with phosphate buffer A (0.1 M potassium phosphate pH 8.0, 1 M sorbitol, 14 mM 2-mercaptoethanol). The spheroplasts were re-suspended in a minimum vol of phosphate buffer B (0.1 M potassium phosphate pH 8.0, 0.4 M sucrose, 14 mM β-mercaptoethanol, 1 mM PMSF and 1× […] (Roche Diagnostics GmbH, Mannheim, German), and 1 vol of glass beads (diameter at 0.45/0.50 mm) was added. Samples were vigorously vortexed at 4° C., with the quality of cell disruption checked under the microscope. The supernatant was then removed and the beads washed four times with phosphate buffer B. Supernatants were pooled and centrifuged at 12,000 g for 10 min; the resulting supernatant was then ultracentrifuged at 140,000 g for 90 min. The supernatant was discarded and the pellet washed briefly with phosphate buffer C (0.1 M potassium phosphate, pH 8.0, 0.4 M sucrose, 0.5 mM glutathione), and re-suspended in the same buffer plus 5% glycerol at about 12 mg total protein/ml. Protein was quantified using a Bio-Rad protein assay kit (Bio-Rad, Hercules, Calif.).
(§3) Hydroxylase assays were performed in phosphate buffer C in a total volume of 150 μl containing 2 mM NADPH, 40 μM isoflavone substrate and 40˜70 pmol P450 protein. […] The extracts were combined, evaporated under N2, re-suspended in 60 μl of methanol, and analyzed by HPLC or LC-MS. All assays to determine enzyme specificity were carried out in duplicate. For kinetic studies, the isoflavone concentration was varied at a fixed concentration of NADPH (2 mM), and kinetic constants calculated from initial rate data using Lineweaver-Burke double reciprocal plots. All kinetic analyses were carried out in triplicate.
(§4) Reaction products from enzyme assays (30 μl) were analyzed by HPLC.
(§5) Product identification was firstly based on comparisons of chromatographic behavior and UV spectra with authentic standards. Identifications were then confirmed by HPLC-MS, using a HP 1100 liquid chromatograph coupled to a Bruker Esquire Ion-Trap mass spectrometer equipped with an electrospray source. HPLC separation was achieved using a J. T. Baker Bakerbond reverse-phase column (C18, 5 μm, 4.6 mm×250 mm, J. T. Baker, Philipsberg, N.J.). Samples were eluted with the gradient described above but with 0.1% aqueous acetic acid replacing the 1% phosphoric acid. Ion charge control was set at 30,000 with a max acquire time of 100 ms. Mass spectra were recorded over a range of 50-2200 m/z.

A further data set deals with T2, I2′H (MtCYP81E7) (Medicago truncatula, UniProt Q6WNR0).
T2 construct: The open reading frame of MtCYP81E7 was amplified with forward primer; made in house; host or cells: Saccharomyces cerevisiae WAT11, vector YeDP60; microsomal fraction
T2 sequence (Q6WNR0 1-498): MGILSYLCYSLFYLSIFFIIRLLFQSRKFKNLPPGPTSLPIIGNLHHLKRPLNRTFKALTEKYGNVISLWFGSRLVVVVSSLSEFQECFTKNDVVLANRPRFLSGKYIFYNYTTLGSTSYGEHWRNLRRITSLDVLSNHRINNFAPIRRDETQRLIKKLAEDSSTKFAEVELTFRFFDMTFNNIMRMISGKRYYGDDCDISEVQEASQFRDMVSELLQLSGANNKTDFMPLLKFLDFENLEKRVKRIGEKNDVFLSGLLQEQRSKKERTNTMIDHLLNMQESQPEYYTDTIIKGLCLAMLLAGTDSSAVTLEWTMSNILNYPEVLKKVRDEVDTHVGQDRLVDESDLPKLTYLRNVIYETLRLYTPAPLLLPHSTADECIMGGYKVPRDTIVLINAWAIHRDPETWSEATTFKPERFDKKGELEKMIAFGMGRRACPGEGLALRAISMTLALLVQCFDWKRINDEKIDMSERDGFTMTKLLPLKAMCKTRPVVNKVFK
In words: Hydroxylase assay with yeast microsomes expressing recombinant MtCYP81E7 (I2′H). Conditions: for Substrate specificity of I2′H (MtCYP81E7), relative activity: 100% = biochanin A, a = sum of putative 2′ and/or 3′-hydroxylated products, ND = activities not detectable. The data set is classed as biochemical. The method, then: as §1, §2, §3, §4, §5

The next data set deals with T3, MtCYP81E8 (Medicago truncatula, UniProt Q6WNQ8).
T3 construct: The full length CYP81E8 cDNA was directly excised from its original clone; made in house; host or cells: Saccharomyces cerevisiae WAT11, vector YeDP60; microsomal fraction
T3 sequence (Q6WNQ8 1-499): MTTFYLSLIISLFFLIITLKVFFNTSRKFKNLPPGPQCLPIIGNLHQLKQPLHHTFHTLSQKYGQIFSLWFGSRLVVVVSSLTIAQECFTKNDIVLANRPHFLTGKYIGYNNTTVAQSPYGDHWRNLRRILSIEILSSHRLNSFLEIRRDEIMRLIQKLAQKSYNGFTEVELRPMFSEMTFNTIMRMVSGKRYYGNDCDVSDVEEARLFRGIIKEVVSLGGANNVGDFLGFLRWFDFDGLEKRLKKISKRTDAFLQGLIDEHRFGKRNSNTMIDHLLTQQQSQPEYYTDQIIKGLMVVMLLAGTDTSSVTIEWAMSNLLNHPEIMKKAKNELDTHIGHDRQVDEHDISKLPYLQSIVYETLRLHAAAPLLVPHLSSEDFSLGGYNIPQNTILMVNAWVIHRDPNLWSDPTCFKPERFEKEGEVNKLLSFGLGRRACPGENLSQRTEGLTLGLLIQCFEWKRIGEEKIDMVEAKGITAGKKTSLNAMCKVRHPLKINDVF
In words: Hydroxylase assay with yeast microsomes expressing recombinant MtCYP81E8. The conditions noted are these: standard assay conditions, or at different pH values and NADPH concentrations. The data set is classed as biochemical. The method, then: as §1, §2, §3, §4

Substrate in data set [1]: COc1ccc(-c2coc3cc(O)ccc3c2=O)cc1
The data set is described as follows: Hydroxylase assay with yeast microsomes expressing recombinant MtCYP81E7 (I2′H). The data set is classed as biochemical, Medicago truncatula. Conditions: other: 2 mM NADPH and pH 8.0, 25.0 °C.

Substrate in data set [2]: COc1ccc(-c2coc3cc(O)cc(O)c3c2=O)cc1
Described as above. The format is biochemical, Medicago truncatula. Conditions: other: 2 mM NADPH and pH 8.0, 25.0 °C.

Marks after values point to notes of the source that are not given here.

For `COc1ccc(-c2coc3cc(O)ccc3c2=O)c(O)c1` [2′-Hydroxyformononetin], at I3′H (MtCYP81E9), the “Activity of MtI3′H with substrate (in words)” value (from here on “Activity of MtI3′H”) is given as “more active”. For the same molecule, the “Substrate specificity of I3′H (MtCYP81E9), relative activity” value at I3′H (MtCYP81E9) (isoflavone 40 μM) was 39.34%^b. Further, at I2′H (MtCYP81E7), the “Activity of MtI2′H with substrate (in words)” value (“Activity of MtI2′H” for short) is recorded as “negligible activity”. Also, on I2′H (MtCYP81E7) (isoflavone 40 μM), the “Substrate specificity of I2′H (MtCYP81E7), relative activity” value was 9.1%^a.

As to `COc1ccc(-c2coc3cc(O)ccc3c2=O)cc1O` [3′-Hydroxyformononetin], the “Activity of MtI2′H” value on I2′H (MtCYP81E7) is “negligible activity”. The “Substrate specificity of I2′H (MtCYP81E7), relative activity” value on I2′H (MtCYP81E7) (isoflavone 40 μM) is given as 4.7%.

With `COc1ccc(-c2coc3cc(O)cc(O)c3c2=O)cc1` [Biochanin A], on I3′H (MtCYP81E9) (isoflavone 40 μM, 2 mM NADPH), the “Activity corresponding to 100%, 3′-hydroxylation” value was 98.56 pmol pmol^−1 protein h^−1. Besides, at I3′H (MtCYP81E9) (isoflavone 40 μM), the “Substrate specificity of I3′H (MtCYP81E9), relative activity” value is listed as 100%. In addition, the Activity corresponding to 100%, 2′-hydroxylation at I2′H (MtCYP81E7) (isoflavone 40 μM, 2 mM NADPH) came out at 53.8 pmol/pmol protein/h. In addition, the “Substrate specificity of I2′H (MtCYP81E7), relative activity” value on I2′H (MtCYP81E7) (isoflavone 40 μM) worked out at 100%.

Consider `O=c1c(-c2ccc(O)cc2)coc2cc(O)ccc12` [Daidzein, 7,4′-dihydroxyisoflavone], for which the “Activity of MtI3′H” value on I3′H (MtCYP81E9) is “low activity”. Also, the “Substrate specificity of I3′H (MtCYP81E9), relative activity” value at I3′H (MtCYP81E9) (isoflavone 40 μM) is recorded as 1.73%^a. Besides, the “Activity of MtI2′H” value on I2′H (MtCYP81E7) is listed as “weak activity”. Further, the “Substrate specificity of I2′H (MtCYP81E7), relative activity” value at I2′H (MtCYP81E7) (isoflavone 40 μM) amounted to 18.6%^a.

Turning to `COc1ccc(-c2coc3cc(O)ccc3c2=O)cc1` [Formononetin, 7-hydroxy, 4′-methoxyisoflavone], the “Substrate specificity of I3′H (MtCYP81E9), relative activity” value at I3′H (MtCYP81E9) (isoflavone 40 μM) was 50%. Moreover, the “Substrate specificity of I2′H (MtCYP81E7), relative activity” value at I2′H (MtCYP81E7) (isoflavone 40 μM) is listed as 37.2%.

In the case of `O=c1c(-c2ccc(O)cc2)coc2cc(O)cc(O)c12` [Genistein, 5,7,4′-trihydroxyisoflavone], the “Substrate specificity of I3′H (MtCYP81E9), relative activity” value on I3′H (MtCYP81E9) (isoflavone 40 μM) was determined as 19.13%^a. For the same molecule, on I2′H (MtCYP81E7), the “Activity of MtI2′H” value was “weak activity”. For the same molecule, at I2′H (MtCYP81E7) (isoflavone 40 μM), the “Substrate specificity of I2′H (MtCYP81E7), relative activity” value amounted to 10.2%^a.

On to `COc1ccc2c(=O)c(-c3ccc(O)cc3)coc2c1` [Isoformononetin], for which the “Activity of MtI3′H” value on I3′H (MtCYP81E9) is “Neither enzyme hydroxylated”. Moreover, the “Activity of MtI2′H” value on I2′H (MtCYP81E7) is recorded as “Neither enzyme hydroxylated”.

`COc1cc(O)c2c(=O)c(-c3ccc(O)cc3)coc2c1` [Prunetin]: the “Activity of MtI3′H” value on I3′H (MtCYP81E9) is listed as “Neither enzyme hydroxylated”. In addition, the “Activity of MtI2′H” value at I2′H (MtCYP81E7) is “Neither enzyme hydroxylated”.

`O=c1c(-c2ccc3c(c2)OCO3)coc2cc(O)ccc12` [Pseudobaptigenin]: the “Activity of MtI3′H” value on I3′H (MtCYP81E9) is on record as “low activity”. Also, the “Substrate specificity of I3′H (MtCYP81E9), relative activity” value on I3′H (MtCYP81E9) (isoflavone 40 μM) is reported as 7.6%^a. The “Activity of MtI2′H” value at I2′H (MtCYP81E7) is given as “active”. In addition, at I2′H (MtCYP81E7) (isoflavone 40 μM), the “Substrate specificity of I2′H (MtCYP81E7), relative activity” value is 35%.

As to `O=c1cc(-c2ccc(O)cc2)oc2cc(O)cc(O)c12` [apigenin], the “Activity of recombinant MtCYP81E8 with substrate (in words)” value (shortened to “Activity of recombinant MtCYP81E8”) at MtCYP81E8 is recorded as “no activity”.

Consider `O=C1C[C@@H](c2ccc(O)cc2)Oc2cc(O)ccc21` [liquiritigenin], for which the “Activity of recombinant MtCYP81E8” value at MtCYP81E8 is reported as “no activity”.

As to `O=c1cc(-c2ccc(O)c(O)c2)oc2cc(O)cc(O)c12` [luteolin], on MtCYP81E8, the “Activity of recombinant MtCYP81E8” value is “no activity”.

Regarding `O=C1C[C@@H](c2ccc(O)cc2)Oc2cc(O)cc(O)c21` [narigenin], the “Activity of recombinant MtCYP81E8” value at MtCYP81E8 was “no activity”.

In the case of NADPH, the Km at I2′H (MtCYP81E7) (read-out: apparent KM value of MtCYP81E7 for NADPH) is around 0.17 µM.

B1: I2′H (MtCYP81E7) (Medicago truncatula) (protein)
chain: T2 sequence (Q6WNR0 1-498)
notes: The open reading frame of MtCYP81E7 was amplified with forward primer; made in house; host or cells: Saccharomyces cerevisiae WAT11, vector YeDP60; microsomal fraction
For the molecule B1, in data set [1], the Km was determined as 67 µM and the kcat amounted to 0.015 s⁻¹. Further, in data set [2], the Km was 51 µM and the kcat was 0.033 s⁻¹.
